± gives the expanded uncertainty stated by the source.
Assay: xn = mol fraction of the nth substance listed
Details: 101.33 kPa, Liquid

CCOS(=O)(=O)[O-].CCn1cc[n+](C)c1 [1-ethyl-3-methylimidazolium ethyl sulfate] + O
mass density (278.2 K, x2 = 0): 1243 ± 6.1 kg/m3 | mass density (278.2 K, x2 = 0.0503): 1242.6 ± 6.1 kg/m3 | mass density (278.2 K, x2 = 0.0983): 1241.6 ± 6.1 kg/m3 | mass density (278.2 K, x2 = 0.1495): 1240.2 ± 6.1 kg/m3 | mass density (278.2 K, x2 = 0.1996): 1239.2 ± 6.1 kg/m3 | mass density (278.2 K, x2 = 0.2505): 1238.3 ± 6.1 kg/m3 | mass density (278.2 K, x2 = 0.2999): 1236.7 ± 6.1 kg/m3 | mass density (278.2 K, x2 = 0.3504): 1235.6 ± 6 kg/m3 | mass density (278.2 K, x2 = 0.3987): 1233.4 ± 6 kg/m3 | mass density (278.2 K, x2 = 0.4505): 1231.1 ± 6 kg/m3 | mass density (278.2 K, x2 = 0.4994): 1228.7 ± 5.9 kg/m3 | mass density (278.2 K, x2 = 0.5495): 1225.8 ± 5.9 kg/m3 | mass density (278.2 K, x2 = 0.6): 1222.1 ± 5.8 kg/m3 | mass density (278.2 K, x2 = 0.6504): 1217.2 ± 5.8 kg/m3 | mass density (278.2 K, x2 = 0.6999): 1211.5 ± 5.7 kg/m3 | mass density (278.2 K, x2 = 0.7502): 1203.2 ± 5.6 kg/m3 | mass density (278.2 K, x2 = 0.8): 1192.4 ± 5.4 kg/m3 | mass density (278.2 K, x2 = 0.8499): 1176.4 ± 5.2 kg/m3 | mass density (278.2 K, x2 = 0.9): 1149.2 ± 4.8 kg/m3 | mass density (278.2 K, x2 = 0.94): 1107.2 ± 4.2 kg/m3 | mass density (288.2 K, x2 = 0): 1236.2 ± 6 kg/m3 | mass density (288.2 K, x2 = 0.0503): 1235.5 ± 6 kg/m3 | mass density (288.2 K, x2 = 0.0983): 1234.7 ± 6 kg/m3 | mass density (288.2 K, x2 = 0.1495): 1233.5 ± 6 kg/m3 | mass density (288.2 K, x2 = 0.1996): 1232.7 ± 6 kg/m3 | mass density (288.2 K, x2 = 0.2505): 1231.1 ± 6 kg/m3 | mass density (288.2 K, x2 = 0.2999): 1229.8 ± 6 kg/m3 | mass density (288.2 K, x2 = 0.3504): 1228.5 ± 5.9 kg/m3 | mass density (288.2 K, x2 = 0.3987): 1226.6 ± 5.9 kg/m3 | mass density (288.2 K, x2 = 0.4505): 1224.4 ± 5.9 kg/m3 | mass density (288.2 K, x2 = 0.4994): 1222 ± 5.8 kg/m3 | mass density (288.2 K, x2 = 0.5495): 1219.1 ± 5.8 kg/m3 | mass density (288.2 K, x2 = 0.6): 1215.3 ± 5.7 kg/m3 | mass density (288.2 K, x2 = 0.6504): 1210.7 ± 5.7 kg/m3 | mass density (288.2 K, x2 = 0.6999): 1204.7 ± 5.6 kg/m3 | mass density (288.2 K, x2 = 0.7502): 1196.8 ± 5.5 kg/m3 | mass density (288.2 K, x2 = 0.8): 1185.7 ± 5.3 kg/m3 | mass density (288.2 K, x2 = 0.8499): 1169.9 ± 5.1 kg/m3 | mass density (288.2 K, x2 = 0.9): 1142.9 ± 4.7 kg/m3 | mass density (288.2 K, x2 = 0.94): 1101.8 ± 4.1 kg/m3 | mass density (298.2 K, x2 = 0): 1229.6 ± 5.9 kg/m3 | mass density (298.2 K, x2 = 0.0503): 1229 ± 5.9 kg/m3 | mass density (298.2 K, x2 = 0.0983): 1227.9 ± 5.9 kg/m3 | mass density (298.2 K, x2 = 0.1495): 1226.9 ± 5.9 kg/m3 | mass density (298.2 K, x2 = 0.1996): 1226.2 ± 5.9 kg/m3 | mass density (298.2 K, x2 = 0.2505): 1224.7 ± 5.9 kg/m3 | mass density (298.2 K, x2 = 0.2999): 1223.1 ± 5.9 kg/m3 | mass density (298.2 K, x2 = 0.3504): 1221.8 ± 5.8 kg/m3 | mass density (298.2 K, x2 = 0.3987): 1220.1 ± 5.8 kg/m3 | mass density (298.2 K, x2 = 0.4505): 1218 ± 5.8 kg/m3 | mass density (298.2 K, x2 = 0.4994): 1215.4 ± 5.7 kg/m3 | mass density (298.2 K, x2 = 0.5495): 1212.3 ± 5.7 kg/m3 | mass density (298.2 K, x2 = 0.6): 1208.7 ± 5.6 kg/m3 | mass density (298.2 K, x2 = 0.6504): 1203.8 ± 5.6 kg/m3 | mass density (298.2 K, x2 = 0.6999): 1198.3 ± 5.5 kg/m3 | mass density (298.2 K, x2 = 0.7502): 1190 ± 5.4 kg/m3 | mass density (298.2 K, x2 = 0.8): 1178.9 ± 5.2 kg/m3 | mass density (298.2 K, x2 = 0.8499): 1163.4 ± 5 kg/m3 | mass density (298.2 K, x2 = 0.9): 1136.6 ± 4.6 kg/m3 | mass density (298.2 K, x2 = 0.94): 1096.4 ± 4 kg/m3 | mass density (308.2 K, x2 = 0): 1223 ± 5.8 kg/m3 | mass density (308.2 K, x2 = 0.0503): 1222.6 ± 5.8 kg/m3 | mass density (308.2 K, x2 = 0.0983): 1221.6 ± 5.8 kg/m3 | mass density (308.2 K, x2 = 0.1495): 1220.5 ± 5.8 kg/m3 | mass density (308.2 K, x2 = 0.1996): 1219.5 ± 5.8 kg/m3 | mass density (308.2 K, x2 = 0.2505): 1218.3 ± 5.8 kg/m3 | mass density (308.2 K, x2 = 0.2999): 1216.6 ± 5.8 kg/m3 | mass density (308.2 K, x2 = 0.3504): 1215.3 ± 5.7 kg/m3 | mass density (308.2 K, x2 = 0.3987): 1213.4 ± 5.7 kg/m3 | mass density (308.2 K, x2 = 0.4505): 1211.2 ± 5.7 kg/m3 | mass density (308.2 K, x2 = 0.4994): 1208.8 ± 5.6 kg/m3 | mass density (308.2 K, x2 = 0.5495): 1205.8 ± 5.6 kg/m3 | mass density (308.2 K, x2 = 0.6): 1202 ± 5.5 kg/m3 | mass density (308.2 K, x2 = 0.6504): 1197.4 ± 5.5 kg/m3 | mass density (308.2 K, x2 = 0.6999): 1191.5 ± 5.4 kg/m3 | mass density (308.2 K, x2 = 0.7502): 1183.3 ± 5.3 kg/m3 | mass density (308.2 K, x2 = 0.8): 1172.4 ± 5.1 kg/m3 | mass density (308.2 K, x2 = 0.8499): 1156.8 ± 4.9 kg/m3 | mass density (308.2 K, x2 = 0.9): 1130.3 ± 4.5 kg/m3 | mass density (308.2 K, x2 = 0.94): 1090.8 ± 4 kg/m3 | mass density (318.2 K, x2 = 0): 1216.2 ± 5.7 kg/m3 | mass density (318.2 K, x2 = 0.0503): 1216.2 ± 5.7 kg/m3 | mass density (318.2 K, x2 = 0.0983): 1215.1 ± 5.7 kg/m3 | mass density (318.2 K, x2 = 0.1495): 1213.9 ± 5.7 kg/m3 | mass density (318.2 K, x2 = 0.1996): 1213 ± 5.7 kg/m3 | mass density (318.2 K, x2 = 0.2505): 1211.7 ± 5.7 kg/m3 | mass density (318.2 K, x2 = 0.2999): 1210.1 ± 5.7 kg/m3 | mass density (318.2 K, x2 = 0.3504): 1208.7 ± 5.6 kg/m3 | mass density (318.2 K, x2 = 0.3987): 1206.8 ± 5.6 kg/m3 | mass density (318.2 K, x2 = 0.4505): 1204.6 ± 5.6 kg/m3 | mass density (318.2 K, x2 = 0.4994): 1202.2 ± 5.5 kg/m3 | mass density (318.2 K, x2 = 0.5495): 1199.4 ± 5.5 kg/m3 | mass density (318.2 K, x2 = 0.6): 1195.6 ± 5.4 kg/m3 | mass density (318.2 K, x2 = 0.6504): 1190.8 ± 5.4 kg/m3 | mass density (318.2 K, x2 = 0.6999): 1184.7 ± 5.3 kg/m3 | mass density (318.2 K, x2 = 0.7502): 1176.6 ± 5.2 kg/m3 | mass density (318.2 K, x2 = 0.8): 1165.6 ± 5 kg/m3 | mass density (318.2 K, x2 = 0.8499): 1150 ± 4.8 kg/m3 | mass density (318.2 K, x2 = 0.9): 1124.4 ± 4.4 kg/m3 | mass density (328.2 K, x2 = 0): 1209.9 ± 5.7 kg/m3 | mass density (328.2 K, x2 = 0.0503): 1209.8 ± 5.7 kg/m3 | mass density (328.2 K, x2 = 0.0983): 1208.6 ± 5.6 kg/m3 | mass density (328.2 K, x2 = 0.1495): 1207.5 ± 5.6 kg/m3 | mass density (328.2 K, x2 = 0.1996): 1206.6 ± 5.6 kg/m3 | mass density (328.2 K, x2 = 0.2505): 1205.3 ± 5.6 kg/m3 | mass density (328.2 K, x2 = 0.2999): 1203.8 ± 5.6 kg/m3 | mass density (328.2 K, x2 = 0.3504): 1202.4 ± 5.5 kg/m3 | mass density (328.2 K, x2 = 0.3987): 1200.3 ± 5.5 kg/m3 | mass density (328.2 K, x2 = 0.4505): 1198.6 ± 5.5 kg/m3 | mass density (328.2 K, x2 = 0.4994): 1196.2 ± 5.5 kg/m3 | mass density (328.2 K, x2 = 0.5495): 1193 ± 5.4 kg/m3 | mass density (328.2 K, x2 = 0.6): 1189.2 ± 5.3 kg/m3 | mass density (328.2 K, x2 = 0.6504): 1184.4 ± 5.3 kg/m3 | mass density (328.2 K, x2 = 0.6999): 1178.2 ± 5.2 kg/m3 | mass density (328.2 K, x2 = 0.7502): 1170 ± 5.1 kg/m3 | mass density (328.2 K, x2 = 0.8): 1159.1 ± 4.9 kg/m3 | mass density (328.2 K, x2 = 0.8499): 1143.9 ± 4.7 kg/m3 | mass density (328.2 K, x2 = 0.9): 1117.8 ± 4.3 kg/m3 | mass density (338.2 K, x2 = 0): 1203.7 ± 5.6 kg/m3 | mass density (338.2 K, x2 = 0.0503): 1203.6 ± 5.6 kg/m3 | mass density (338.2 K, x2 = 0.0983): 1202.5 ± 5.5 kg/m3 | mass density (338.2 K, x2 = 0.1495): 1201.2 ± 5.5 kg/m3 | mass density (338.2 K, x2 = 0.1996): 1200.1 ± 5.5 kg/m3 | mass density (338.2 K, x2 = 0.2505): 1198.7 ± 5.5 kg/m3 | mass density (338.2 K, x2 = 0.2999): 1198 ± 5.5 kg/m3 | mass density (338.2 K, x2 = 0.3504): 1196.1 ± 5.5 kg/m3 | mass density (338.2 K, x2 = 0.3987): 1194.3 ± 5.4 kg/m3 | mass density (338.2 K, x2 = 0.4505): 1192.2 ± 5.4 kg/m3 | mass density (338.2 K, x2 = 0.4994): 1189.9 ± 5.4 kg/m3 | mass density (338.2 K, x2 = 0.5495): 1186.8 ± 5.3 kg/m3 | mass density (338.2 K, x2 = 0.6): 1183 ± 5.3 kg/m3 | mass density (338.2 K, x2 = 0.6504): 1178 ± 5.2 kg/m3 | mass density (338.2 K, x2 = 0.6999): 1171.8 ± 5.1 kg/m3 | mass density (338.2 K, x2 = 0.7502): 1163.8 ± 5 kg/m3 | mass density (338.2 K, x2 = 0.8): 1153.1 ± 4.8 kg/m3 | mass density (338.2 K, x2 = 0.8499): 1137.8 ± 4.6 kg/m3 | mass density (338.2 K, x2 = 0.9): 1112.4 ± 4.3 kg/m3
